Data as given in patent publication US11465965B2, “Double-headed protease inhibitor” (UBE INDUSTRIES, LTD., priority 2017, dated 2022).
Where a name gives a salt, the structure may show the parent alone. Read-outs that look alike come from different tables or passages of the source.

Tests used:
[1] = target: T1, Human recombinant trypsin (Homo sapiens, UniProt P07477); assay: Human trypsin inhibition test; assay type: biochemical; conditions: 20 minutes after reaction start, read-out: Inhibition rate (trypsin); for inhibition at 0.01 µM: compound concentration 10 nM; for inhibition at 0.1 µM: compound concentration 100 nM; for inhibition at 0.001 µM: compound concentration 1 nM
T1 construct: purchased Wako Pure Chemical Industries, Ltd. 206-17171
Outline: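 Trypsin diluted to 10 ng/mL in 0.1 M Tris-HCl pH8.0, 0.15 M NaCl, 10 mM CaCl2, 0.05% Brij35; substrate solution 40 μM Boc-Phe-Ser-Arg-MCA, compounds in 1% DMSO buffer. Fluorescence (ex 355/em 460 nm) read 20 min after enzyme addition; % inhibition versus no-compound and no-enzyme controls.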

DIO mouse = assay: Anti-obesity effect test using DIO mouse; assay type: in vivo; conditions: 336 h, DIO mice, vs vehicle group, read-out: Weight loss rate; for inhibition in vivo at 50 mg/kg: oral 50 mg/kg once daily for 2 weeks
Outline: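 Male C57BL-DIO mice on D-12492 diet, 26 to 28-week old, 5 or 6 per group; compound dosed orally once daily for 2 weeks as 0.5 W/V % methylcellulose suspension, vehicle group on suspension alone. Weight loss rate (%) = (1 − mean final-day weight of treated group / mean final-day weight of vehicle group) × 100.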

HFD-fed mouse = assay: Fecal protein concentration-increasing test by single administration using HFD-fed mouse; assay type: in vivo; conditions: 24 h, HFD-fed mice, vs vehicle group, read-out: Ratio for an increase of protein concentration in feces; for response vs control in vivo at 30 mg/kg: single oral dose 30 mg/kg; for response vs control in vivo at 50 mg/kg: single oral dose 50 mg/kg
Excerpt: (Test Example 3): Fecal Protein Concentration-Increasing Test by Single Administration Using HFD-Fed Mouse
High fat diet-fed (HFD-fed) mice (D-12492 diet, male, ICR, 6 week old) were orally administered with a 0.5 W/V % methylcellulose suspension comprising each test compound (Compound administration group, 4 or 5 mice/group) or a 0.5 W/V % methylcellulose suspension (Compound non-administration group (Vehicle group), 5, 6, or 7 mice/group), and whole feces of the day were collected. Dried feces were dissolved into a 0.5N aqueous sodium hydroxide solution, followed by centrifugation at 3500 rpm. Then each protein concentration in the resulting supernatant was determined (Lowry method), and the ratio for an increase of protein concentration in feces was calculated by the following equation using the protein concentration in feces contained in 1 g of feces (mg/g feces). Ratio for an increase of protein concentration in feces−(average protein concentration in feces of Compound administration group)[…](average protein concentration in feces of Compound non-administration group)

[2] = Rat pharmacokinetic (PK) test (plasma concentration after oral administration); conditions: male, SD
Procedure: (§1) Each test compound was suspended in a 0.5 W/V % methylcellulose 400 solution to prepare a suspension, and the resulting suspension was orally administered to a male SD rat of 7 to 8-week old (weight: 180 to 250 g). After 0.25, 0.5, 1, 2, 4, 8, and 24 hour(s) of the administration of each test compound, blood (EDTA-added blood) was collected from jugular vein under isoflurane inhalation anesthesia. […] To the resulting blood plasma was added acetonitrile, a mixed solvent of acetonitrile and water (1:1 (V/V)), or a mixed solvent of acetonitrile and 0.1 M hydrochloric acid (1:1 (V/V)), then the resulting mixture was mixed at 750 rpm for 3 minutes in a shaker, and subjected to centrifugal separation at 3700 rpm for 2 minutes in a centrifuge to remove proteins. The resulting sample was subjected to LC (liquid chromatography)/MS (mass spectrometry) measurement under the following measurement conditions.
(§2) Each compound concentration in blood plasma at each time of blood collection was calculated according to the internal standard method, and, area under the plasma concentration vs. time curve (AUCall (Area Under Curve)) was calculated according to the trapezoidal method.
(§3) The LC and MS systems used in the present test are as follows.
(§4) LC: LC20 or LC30 HPLC system manufactured by Shimadzu Corporation
(§5) Column: Phenomenex Kinetex C18 (50×2.1 mm, 2.6 μm)
Column temperature: 40° C.
(§6) Mobile phase A: aqueous solution with 0.1% formic acid, Mobile phase B: 50% acetonitrile/methanol solution with 0.1% formic acid

[3] = target: T2, Human recombinant enteropeptidase (Homo sapiens, UniProt P98073); assay: Human enteropeptidase inhibition test; assay type: biochemical; conditions: read-out: Inhibition rate (enteropeptidase); for inhibition at 0.001 µM: compound concentration 1 nM
T2 construct: purchased BIO Vision Inc. 7529-50
T2 sequence (P98073 whole entry): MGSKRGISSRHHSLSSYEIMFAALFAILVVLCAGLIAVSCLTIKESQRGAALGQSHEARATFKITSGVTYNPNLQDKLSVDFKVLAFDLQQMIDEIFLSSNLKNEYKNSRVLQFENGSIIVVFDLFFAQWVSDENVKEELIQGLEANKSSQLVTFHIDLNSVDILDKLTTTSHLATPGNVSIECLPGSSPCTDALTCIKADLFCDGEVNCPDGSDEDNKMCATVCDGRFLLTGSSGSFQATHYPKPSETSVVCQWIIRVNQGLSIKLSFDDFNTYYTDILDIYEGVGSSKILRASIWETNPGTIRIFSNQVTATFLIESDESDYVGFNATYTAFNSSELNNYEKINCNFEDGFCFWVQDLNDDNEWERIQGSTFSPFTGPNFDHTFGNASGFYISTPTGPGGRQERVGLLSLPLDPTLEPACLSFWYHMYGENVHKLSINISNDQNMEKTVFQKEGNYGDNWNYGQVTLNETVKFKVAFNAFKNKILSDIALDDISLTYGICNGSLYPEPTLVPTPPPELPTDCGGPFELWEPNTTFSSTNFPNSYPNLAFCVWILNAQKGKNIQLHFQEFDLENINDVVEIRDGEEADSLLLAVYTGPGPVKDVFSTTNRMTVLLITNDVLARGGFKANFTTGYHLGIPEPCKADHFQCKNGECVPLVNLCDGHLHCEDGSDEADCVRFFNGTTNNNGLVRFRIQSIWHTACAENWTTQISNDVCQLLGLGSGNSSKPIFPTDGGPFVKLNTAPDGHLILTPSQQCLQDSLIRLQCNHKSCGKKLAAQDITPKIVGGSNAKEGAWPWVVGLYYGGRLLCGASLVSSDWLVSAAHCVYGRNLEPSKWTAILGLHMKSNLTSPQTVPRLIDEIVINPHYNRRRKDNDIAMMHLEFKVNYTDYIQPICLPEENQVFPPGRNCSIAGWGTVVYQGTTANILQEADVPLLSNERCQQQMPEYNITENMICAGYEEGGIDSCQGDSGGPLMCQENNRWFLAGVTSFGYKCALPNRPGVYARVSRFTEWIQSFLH
Outline: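 Recombinant human enteropeptidase in 50 mM tricine pH 8.0, 0.01% Tween 20, 10 mM CaCl2 cleaving 1.5 μM 5FAM/CPQ2-quenched peptide substrate (stock solution concentration). Fluorescence (ex 485/em 535 nm) read 20 min after enzyme addition; % inhibition versus no-compound and no-enzyme controls.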

in vivo = conditions: male, SD, rat, po, 10 mg/kg
Procedure: as §1, §2, §3, §4, §5
Column temperature: 40° C.
as §6

[4] = compound concentration 10 nM, 20 minutes after reaction start
[5] = compound concentration 100 nM, 20 minutes after reaction start
[6] = 20 minutes after reaction start

Row | Compound | inhibition at 0.01 µM [1] | inhibition at 0.1 µM [1] | AUC ([2]; 10 mg/kg) | inhibition at 0.01 µM [3, 4] | inhibition at 0.1 µM [3, 5] | inhibition at 0.001 µM [1] | inhibition at 0.001 µM [3, 6] | inhibition in vivo at 50 mg/kg (DIO mouse) | response vs control in vivo at 50 mg/kg (HFD-fed mouse) | also measured
1 | N=C(N)Nc1ccc(C(=O)Oc2ccc(CNS(=O)(=O)N(CCOCCOCCOCCOCCN([C@@H](CC(=O)O)C(=O)O)S(=O)(=O)NCc3ccc(OC(=O)c4ccc(NC(=N)N)cc4)cc3)[C@@H](CC(=O)O)C(=O)O)cc2)cc1 [4-(b), (2S,19S)-3,18-bis(N-(4-((4-guanidinobenzoyl)oxy)benzyl)sulfamoyl)-6,9,12,15-tetraoxa-3,18-diazaicosane-1,2,19,20-tetracarboxylic acid trifluoroacetate] | ≥ 50% | ≥ 50% | ≤ 0.1 µg·h/mL | ≥ 50% | ≥ 50% |  |  |  |  | inhibition in vivo at 86 mg/kg (DIO mouse; oral 86 mg/kg once daily for 2 weeks): ≥ 4%; response vs control in vivo at 100 mg/kg (HFD-fed mouse; single oral dose 100 mg/kg): ≥ 130%
2 | N=C(N)Nc1ccc(C(=O)Oc2ccc(CNS(=O)(=O)N(CCCN([C@@H](CC(=O)O)C(=O)O)S(=O)(=O)NCc3ccc(OC(=O)c4ccc(NC(=N)N)cc4)cc3)[C@@H](CC(=O)O)C(=O)O)cc2)cc1 [7-(b), (2S,2′)-2,2′-propane-1,3-diylbis((N-(4-((4-guanidinobenzoyl)oxy)benzyl)sulfamoyl)azanediyl)disuccinic acid] | ≥ 50% | ≥ 50% | ≤ 0.1 µg·h/mL | ≥ 50% | ≥ 50% | ≥ 50% | ≥ 50% |  |  | inhibition in vivo at 100 mg/kg (DIO mouse; oral 100 mg/kg once daily for 2 weeks): ≥ 4%; response vs control in vivo at 30 mg/kg (HFD-fed mouse): ≥ 130%
3 | N=C(N)Nc1ccc(C(=O)Oc2ccc(COC(=O)N(Cc3cccc(C(=O)NCCOCCOCCOCCOCCNC(=O)c4cccc(CN(C(=O)OCc5ccc(OC(=O)c6ccc(NC(=N)N)cc6)cc5)[C@@H](CC(=O)O)C(=O)O)c4)c3)[C@@H](CC(=O)O)C(=O)O)cc2)cc1 [17-(b), (2S,2′S)-2,2′-(((5,8,11,14-tetraoxa-2,17-diazaoctadecane-1,18-dioyl)bis(3,1-phenylene))bis(methylene))bis((((4-((4-guanidinobenzoyloxy)benzyloxycarbonyl)azanediyl))disuccinic acid trifluoroacetate] | ≥ 50% | ≥ 50% |  |  |  | ≥ 50% |  |  |  | inhibition in vivo at 88 mg/kg (DIO mouse; oral 88 mg/kg once daily for 2 weeks): ≥ 4%; response vs control in vivo at 91 mg/kg (HFD-fed mouse; single oral dose 91 mg/kg): ≥ 130%; AUC ([2]; 9 mg/kg): ≤ 0.1 µg·h/mL; inhibition at 0.01 µM [3]: ≥ 50%; inhibition at 0.1 µM [3]: ≥ 50%
4 | N=C(N)Nc1ccc(C(=O)Oc2ccc(CNS(=O)(=O)N(CCOCCN([C@@H](CC(=O)O)C(=O)O)S(=O)(=O)NCc3ccc(OC(=O)c4ccc(NC(=N)N)cc4)cc3)[C@@H](CC(=O)O)C(=O)O)cc2)cc1 [1-(b), (2S,2′S)-2,2′-((oxybis(ethane-2,1-diyl))bis((N-(4-((4-guanidinobenzoyl)oxy)benzyl)sulfamoyl)azanediyl))disuccinic acid] | ≥ 50% | ≥ 50% |  | ≥ 50% | ≥ 50% | ≥ 50% | ≥ 50% |  |  | inhibition in vivo at 30 mg/kg (DIO mouse; oral 30 mg/kg once daily for 2 weeks): ≥ 4%; response vs control in vivo at 87 mg/kg (HFD-fed mouse; single oral dose 87 mg/kg): ≥ 130%; AUC ([2]; 100 mg/kg): ≤ 0.1 µg·h/mL
5 | Cl.N=C(N)Nc1ccc2c(c1)CCCOc1c(cccc1C(=O)N(CCOCCOCCN(C(=O)c1cccc3c1OCCCc1cc(NC(=N)N)ccc1C(=O)O3)[C@H](CC(=O)O)C(=O)O)[C@H](CC(=O)O)C(=O)O)OC2=O [21-(c), (2R,13R)-3,12-bis(10-guanidino-13-oxo-6,7,8,13-tetrahydrodibenzo[b,f][1,4]dioxecin-4-carbonyl)-6,9-dioxa-3,12-diazatetradecane-1,2,13,14-tetracarboxylic acid hydrochloride] |  |  |  |  |  |  |  |  |  | AUC (in vivo): ≤ 0.1 µg·h/mL

Further lines, with some results ahead:

Row | inhibition at 0.01 µM [1] | inhibition at 0.1 µM [1] | AUC ([2]; 10 mg/kg) | inhibition at 0.01 µM [3, 4] | inhibition at 0.1 µM [3, 5] | inhibition at 0.001 µM [1] | inhibition at 0.001 µM [3, 6] | Compound | inhibition in vivo at 50 mg/kg (DIO mouse) | response vs control in vivo at 50 mg/kg (HFD-fed mouse) | also measured
6 | ≥ 50% | ≥ 50% | ≤ 0.1 µg·h/mL | ≥ 50% | ≥ 50% |  | ≥ 50% | N=C(N)Nc1ccc2c(c1)CCCOc1c(cccc1C(=O)N(Cc1cccc(-c3cccc(CN(C(=O)c4cccc5c4OCCCc4cc(NC(=N)N)ccc4C(=O)O5)[C@@H](CC(=O)O)C(=O)O)c3)c1)[C@@H](CC(=O)O)C(=O)O)OC2=O [28-(c)] | ≥ 4% | ≥ 130% | 
7 | ≥ 50% | ≥ 50% |  | ≥ 50% | ≥ 50% |  |  | N=C(N)Nc1ccc(C(=O)Oc2ccc(COC(=O)N(CCOCCOCCOCCOCCN(C(=O)OCc3ccc(OC(=O)c4ccc(NC(=N)N)cc4)cc3)C(CC(=O)O)C(=O)O)C(CC(=O)O)C(=O)O)cc2)cc1 (stereo not shown) [10-(b), 3,18-bis(((4-((4-guanidinobenzoyl)oxy)benzyl)oxy)carbonyl)-6,9,12,15-tetraoxa-3,18-diazaicosane-1,2,19,20-tetracarboxylic acid trifluoroacetate] |  |  | inhibition in vivo at 87 mg/kg (DIO mouse; oral 87 mg/kg once daily for 2 weeks): ≥ 4%; response vs control in vivo at 79 mg/kg (HFD-fed mouse; single oral dose 79 mg/kg): ≥ 130%; AUC ([2]; 8 mg/kg): ≤ 0.1 µg·h/mL
8 | ≥ 50% |  | ≤ 0.1 µg·h/mL | ≥ 50% |  | ≥ 50% | ≥ 50% | N=C(N)Nc1ccc2c(c1)CCCOc1c(cccc1C(=O)N(CCOCCN(C(=O)c1cccc3c1OCCCc1cc(NC(=N)N)ccc1C(=O)O3)[C@@H](CC(=O)O)C(=O)O)[C@@H](CC(=O)O)C(=O)O)OC2=O [26-(b), (2S,2′S)-2,2′-((oxybis(ethane-2,1-diyl))bis((10-guanidino-13-oxo-6,7,8,13-tetrahydrodibenzo[b,f][1,4]dioxecin-4-carbonyl)azanediyl))disuccinic acid] | ≥ 4% | ≥ 130% | 
9 | ≥ 50% | ≥ 50% |  | ≥ 50% | ≥ 50% |  | ≥ 50% | N=C(N)Nc1ccc2c(c1)CCCOc1c(cccc1C(=O)N(CCOCCOCCN(C(=O)c1cccc3c1OCCCc1cc(NC(=N)N)ccc1C(=O)O3)[C@H](CC(=O)O)C(=O)O)[C@H](CC(=O)O)C(=O)O)OC2=O [21-(b), (2R,13R)-3,12-bis(10-guanidino-13-oxo-6,7,8,13-tetrahydrodibenzo[b,f][1,4]dioxecin-4-carbonyl)-6,9-dioxa-3,12-diazatetradecane-1,2,13,14-tetracarboxylic acid trifluoroacetate] |  |  | inhibition in vivo at 25 mg/kg (DIO mouse; oral 25 mg/kg once daily for 2 weeks): ≥ 4%; response vs control in vivo at 30 mg/kg (HFD-fed mouse): ≥ 130%
10 |  | ≥ 50% | ≤ 0.1 µg·h/mL | ≥ 50% | ≥ 50% |  | ≥ 50% | Cl.N=C(N)Nc1ccc2c(c1)CCCOc1c(cccc1C(=O)N(Cc1cc(OCCOCCOc3cc(CN(C(=O)c4cccc5c4OCCCc4cc(NC(=N)N)ccc4C(=O)O5)[C@@H](CC(=O)O)C(=O)O)cc(C(=O)O)c3)cc(C(=O)O)c1)[C@@H](CC(=O)O)C(=O)O)OC2=O [29-(c), (2S,2′S)-2,2′-(((((oxybis(ethane-2,1-diyl))bis(oxy))bis(3-carboxy-5,1-phenylene))bis(methylene))bis((10-guanidino-13-oxo-6,7,8,13-tetrahydrodibenzo[b,f][1,4]dioxecin-4-carbonyl)azanediyl))disuccinic acid hydrochloride] | ≥ 4% | ≥ 130% | 
